Test results: the Kinase Knowledgebase extract (Sharma et al. 2016)
“And” between values parts separate entries of the source, which are not always exact repeats. Equal entries are not always repeated. Blank lines part the entries; values can stand above or below the compound they belong to.

Legend:
[1] = molecular target: PIK3CB;PIK3CG;PIK3CD;PIK3CA (human) (UniProt P48736); experiment: Antiproliferation of Anti-IgM stimulated Human B Cells by PI3K Inhibitors
EGFR [2] = molecular target: EGFR (UniProt P00533)
EGFR [3] = molecular target: EGFR (UniProt P00533); remark: listed apart in the source
[4] = molecular target: PIK3CB;PIK3CD;PIK3CA (human) (UniProt O00329); experiment: Assessment of PI3K Kinase Activity
EGFR [5] = molecular target: EGFR (UniProt P00533); remark: listed apart in the source
EGFR [6] = molecular target: EGFR (UniProt P00533); remark: listed apart in the source
EGFR [7] = molecular target: EGFR (UniProt P00533); remark: listed apart in the source
EGFR (human) [8] = molecular target: EGFR (human) (UniProt P00533)
MAPK14 (human) = MAPK14 (human) (UniProt Q16539); experiment: Inhibition of MAPK14 Kinase Activity
PIK3CA (bovine) = PIK3CA (bovine) (UniProt P32871); experiment: Inhibition of PIK3CA Kinase Activity
MAPK14 [9] = molecular target: MAPK14 (UniProt Q16539); experiment: p38 MAP kinase Inhibition Assay
EGFR [10] = molecular target: EGFR (UniProt P00533); remark: listed apart in the source
EGFR (human) [11] = molecular target: EGFR (human) (UniProt P00533); details: kb
PIK3CB (Human) = PIK3CB (Human) (UniProt P42338); experiment: Inhibition of PIK3CB Kinase (ATP Loss) Activity
EGFR [12] = molecular target: EGFR (UniProt P00533); details: swiss 3t3 fibroblast
EGFR [13] = molecular target: EGFR (UniProt P00533); details: a431
EGFR (human) [14] = molecular target: EGFR (human) (UniProt P00533); remark: listed apart in the source
MAPK14 [15] = molecular target: MAPK14 (UniProt Q16539); experiment: Inhibition of MAPK14 Kinase Activity (Spectrophometric Assay)
ROCK2 = ROCK2 (UniProt O75116); experiment: ROCK2 Kinase Inhibition; details: concentration not given here
CDK2 = CDK2 (UniProt P24941); experiment: Enzyme Assay; details: concentration not given here
MAPK14 [16] = molecular target: MAPK14 (UniProt Q16539); experiment: p38-alpha Kinase Inhibition; details: concentration not given here
EGFR (human) [17] = molecular target: EGFR (human) (UniProt P00533); details: a431
EGFR (human) [18] = molecular target: EGFR (human) (UniProt P00533); details: a431; remark: listed apart in the source
EGFR (human) [19] = molecular target: EGFR (human) (UniProt P00533); details: concentration not given here
EGFR (human) [20] = molecular target: EGFR (human) (UniProt P00533); remark: listed apart in the source

PIK3CB;PIK3CD;PIK3CA (human), sequence (O00329 whole entry, looked up): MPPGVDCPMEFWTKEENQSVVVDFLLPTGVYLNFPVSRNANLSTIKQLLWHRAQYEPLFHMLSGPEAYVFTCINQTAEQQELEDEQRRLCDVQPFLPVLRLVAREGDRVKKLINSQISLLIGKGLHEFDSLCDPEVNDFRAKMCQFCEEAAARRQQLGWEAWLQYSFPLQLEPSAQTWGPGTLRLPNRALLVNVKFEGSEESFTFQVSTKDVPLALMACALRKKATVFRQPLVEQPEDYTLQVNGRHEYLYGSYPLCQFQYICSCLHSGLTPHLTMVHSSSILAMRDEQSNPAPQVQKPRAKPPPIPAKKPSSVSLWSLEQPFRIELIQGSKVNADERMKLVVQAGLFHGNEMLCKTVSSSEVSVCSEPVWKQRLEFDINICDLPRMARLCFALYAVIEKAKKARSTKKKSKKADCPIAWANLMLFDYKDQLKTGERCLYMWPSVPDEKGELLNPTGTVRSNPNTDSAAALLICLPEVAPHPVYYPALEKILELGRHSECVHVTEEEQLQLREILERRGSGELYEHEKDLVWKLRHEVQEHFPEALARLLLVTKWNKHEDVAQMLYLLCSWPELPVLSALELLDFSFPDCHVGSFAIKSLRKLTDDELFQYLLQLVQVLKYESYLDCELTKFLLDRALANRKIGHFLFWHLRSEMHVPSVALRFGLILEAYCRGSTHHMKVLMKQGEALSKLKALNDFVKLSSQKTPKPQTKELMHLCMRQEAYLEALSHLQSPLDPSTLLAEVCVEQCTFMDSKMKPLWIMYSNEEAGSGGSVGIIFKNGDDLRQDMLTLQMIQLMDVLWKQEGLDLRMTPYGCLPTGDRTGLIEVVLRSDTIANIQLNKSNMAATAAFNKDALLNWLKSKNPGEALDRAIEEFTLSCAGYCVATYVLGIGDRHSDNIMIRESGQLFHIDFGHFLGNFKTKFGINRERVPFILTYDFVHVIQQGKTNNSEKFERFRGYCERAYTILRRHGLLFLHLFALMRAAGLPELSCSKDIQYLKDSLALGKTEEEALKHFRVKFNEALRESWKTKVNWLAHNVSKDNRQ
EGFR, sequence (P00533 whole entry, looked up): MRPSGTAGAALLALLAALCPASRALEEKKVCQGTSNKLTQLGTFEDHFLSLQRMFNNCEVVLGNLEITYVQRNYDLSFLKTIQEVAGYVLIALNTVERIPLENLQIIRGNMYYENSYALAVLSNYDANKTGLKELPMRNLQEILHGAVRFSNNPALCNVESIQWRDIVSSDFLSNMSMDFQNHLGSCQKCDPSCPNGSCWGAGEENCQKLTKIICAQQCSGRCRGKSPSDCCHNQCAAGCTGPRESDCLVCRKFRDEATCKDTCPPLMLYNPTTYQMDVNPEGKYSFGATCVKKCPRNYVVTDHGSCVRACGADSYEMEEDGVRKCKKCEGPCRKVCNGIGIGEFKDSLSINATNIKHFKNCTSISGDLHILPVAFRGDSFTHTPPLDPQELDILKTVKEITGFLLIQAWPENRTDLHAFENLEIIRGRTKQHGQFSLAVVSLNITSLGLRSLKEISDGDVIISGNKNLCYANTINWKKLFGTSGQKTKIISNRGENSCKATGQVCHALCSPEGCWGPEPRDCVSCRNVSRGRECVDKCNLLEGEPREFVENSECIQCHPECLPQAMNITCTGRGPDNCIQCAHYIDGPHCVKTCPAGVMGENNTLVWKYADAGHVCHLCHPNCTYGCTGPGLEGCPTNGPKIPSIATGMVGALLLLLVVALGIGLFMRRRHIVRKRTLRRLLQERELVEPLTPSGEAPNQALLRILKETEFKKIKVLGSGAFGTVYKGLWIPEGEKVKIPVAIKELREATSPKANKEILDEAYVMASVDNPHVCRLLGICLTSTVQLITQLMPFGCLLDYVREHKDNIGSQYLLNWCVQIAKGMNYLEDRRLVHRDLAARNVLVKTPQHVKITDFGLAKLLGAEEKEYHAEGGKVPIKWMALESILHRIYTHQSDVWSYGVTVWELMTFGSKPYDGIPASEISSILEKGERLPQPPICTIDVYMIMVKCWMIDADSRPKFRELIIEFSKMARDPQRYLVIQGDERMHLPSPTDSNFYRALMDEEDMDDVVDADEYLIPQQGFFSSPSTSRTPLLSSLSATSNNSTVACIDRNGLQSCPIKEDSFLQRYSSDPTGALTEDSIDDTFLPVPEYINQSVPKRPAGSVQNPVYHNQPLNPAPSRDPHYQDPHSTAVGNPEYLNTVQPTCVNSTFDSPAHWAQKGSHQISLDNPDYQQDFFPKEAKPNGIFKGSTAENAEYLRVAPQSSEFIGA
EGFR (human), sequence (P00533 whole entry, looked up): as above
MAPK14, sequence (Q16539 whole entry, looked up): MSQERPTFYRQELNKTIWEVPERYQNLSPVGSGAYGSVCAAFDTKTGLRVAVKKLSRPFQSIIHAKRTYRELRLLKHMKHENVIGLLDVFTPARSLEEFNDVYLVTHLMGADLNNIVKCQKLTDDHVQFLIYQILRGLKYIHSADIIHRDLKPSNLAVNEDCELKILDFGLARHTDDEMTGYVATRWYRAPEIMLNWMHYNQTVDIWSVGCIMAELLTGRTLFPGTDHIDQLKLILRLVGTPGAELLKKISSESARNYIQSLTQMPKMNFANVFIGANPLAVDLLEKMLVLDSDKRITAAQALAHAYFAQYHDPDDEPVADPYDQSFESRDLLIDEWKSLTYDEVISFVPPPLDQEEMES
PIK3CA (bovine), sequence (P32871 whole entry, looked up): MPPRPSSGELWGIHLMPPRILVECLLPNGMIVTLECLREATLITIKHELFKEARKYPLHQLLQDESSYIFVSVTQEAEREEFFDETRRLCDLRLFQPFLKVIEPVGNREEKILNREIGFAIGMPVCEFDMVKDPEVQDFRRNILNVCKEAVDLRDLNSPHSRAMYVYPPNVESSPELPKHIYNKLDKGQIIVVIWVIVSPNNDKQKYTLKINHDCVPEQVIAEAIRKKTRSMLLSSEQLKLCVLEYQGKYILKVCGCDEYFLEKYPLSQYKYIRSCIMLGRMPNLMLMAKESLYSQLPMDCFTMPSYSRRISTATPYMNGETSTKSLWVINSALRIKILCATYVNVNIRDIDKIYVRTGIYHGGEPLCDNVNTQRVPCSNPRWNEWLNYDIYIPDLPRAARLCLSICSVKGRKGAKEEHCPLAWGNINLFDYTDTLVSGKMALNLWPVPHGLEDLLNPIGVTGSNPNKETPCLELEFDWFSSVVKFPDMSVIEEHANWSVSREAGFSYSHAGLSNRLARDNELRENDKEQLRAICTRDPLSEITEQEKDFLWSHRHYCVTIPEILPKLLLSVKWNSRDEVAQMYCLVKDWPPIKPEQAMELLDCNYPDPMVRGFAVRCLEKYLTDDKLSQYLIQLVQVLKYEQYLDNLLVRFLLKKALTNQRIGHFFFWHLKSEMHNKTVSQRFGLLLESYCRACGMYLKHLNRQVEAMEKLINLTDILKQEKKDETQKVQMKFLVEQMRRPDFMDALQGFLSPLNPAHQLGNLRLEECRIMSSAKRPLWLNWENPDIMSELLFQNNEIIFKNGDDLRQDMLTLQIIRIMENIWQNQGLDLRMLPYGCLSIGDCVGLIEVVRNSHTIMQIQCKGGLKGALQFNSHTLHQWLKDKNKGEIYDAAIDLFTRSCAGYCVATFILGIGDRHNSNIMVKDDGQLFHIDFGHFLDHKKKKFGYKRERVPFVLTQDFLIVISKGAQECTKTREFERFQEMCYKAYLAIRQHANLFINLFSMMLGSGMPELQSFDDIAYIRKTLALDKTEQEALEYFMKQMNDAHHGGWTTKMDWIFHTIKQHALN
MAPK14 (human), sequence (Q16539 whole entry, looked up): as the sequence (Q16539 whole entry, looked up) above

SMILES: C[C@H](Nc1ncnc2[nH]cnc12)C1=C(c2ccccc2)[NH+]([O-])c2cc(F)ccc2C1 (stereo partly specified)
IC50 [1]: 4.64 nM

SMILES: Fc1ccc(OCCc2ccccc2)c(-c2nc3c(Cl)cccc3cc2CNc2ncnc3[nH]cnc23)c1
IC50 [1]: 565 nM

SMILES: COc1ccc(N2Cc3cnc(Nc4ccccc4)nc3N(c3ccccc3)C2=O)cc1
IC50 (EGFR [3]): 360 nM and 350 nM

SMILES: Cc1cc(NC(=O)Nc2ccc(-c3nc(CS(C)(=O)=O)cc(N4CCOCC4)n3)cc2)no1
IC50 [4]: 57800 nM and 91200 nM

SMILES: COc1ccc(N2Cc3cnc(Nc4ccc(O)cc4)nc3N(c3ccccc3)C2=O)cc1
IC50 (EGFR [3]): 130 nM

SMILES: CN1CCC(c2[nH]nc(-c3ccc(Cl)cc3)c2-c2ccncn2)CC1
IC50 (EGFR (human) [8]): < 1000 nM | IC50 (MAPK14 (human)): 48 nM

SMILES: O=C(CO)N1CCC(c2[nH]nc(-c3ccc(Cl)cc3)c2-c2ccncn2)CC1
IC50 (EGFR (human) [8]): 101 nM

SMILES: c1cnc2[nH]c3c(N4CCOCC4)ncnc3c2c1
IC50 (PIK3CA (bovine)): > 30000 nM

SMILES: CS(=O)(=O)Cc1cc(N2CCOCC2)nc(-c2ccc(NS(C)(=O)=O)cc2)n1
IC50 [4]: 54000 nM

SMILES: c1cnc2c(c1)ccn2CCc1ccncc1
IC50 (MAPK14 [9]): 177000 nM

SMILES: CS(=O)(=O)N1CCC(COc2ccc3ncnc(Nc4ccc(OCc5ccccn5)c(Cl)c4)c3c2)C1 (stereo unspecified)
IC50 (EGFR [10]): 213 nM

SMILES: CN(C)CC(=O)N1CCC(Oc2ccc3ncnc(Nc4ccc(OCc5ccccn5)c(Cl)c4)c3c2)CC1
IC50 (EGFR [10]): 39 nM

SMILES: c1ccc(-c2nc(N3CCOCC3)c3sc4ccccc4c3n2)cc1
IC50 (PIK3CA (bovine)): > 30000 nM

SMILES: COc1cc2ncnc(Nc3cccc(Cl)c3F)c2cc1O[C@H]1CCN(C)[C@H](C(N)=O)C1
IC50 (EGFR (human) [11]): 56 nM

SMILES: COc1ccc2[nH]c3c(-c4ccccc4OC)nc4c(c3c2c1)C(=O)NC4=O
IC50 (EGFR [12]): > 30000 nM | IC50 (EGFR [13]): > 30000 nM

SMILES: O=S(=O)(CCNCCCc1ccc(-c2ccc3ncnc(Nc4ccc(OCc5ccccc5)c(Cl)c4)c3c2)o1)c1ccccc1
IC50 (EGFR (human) [14]): 50 nM

SMILES: CC(C)(C)c1cc(NC(=O)Nc2cccc3ccccc23)n(-c2ccc(CO)cc2)n1
IC50 (MAPK14 [15]): 8 nM

SMILES: Cn1cc(C2=C(c3cn(CCCN)c4ccccc34)C(=O)NC2=O)c2ccccc21
activity (ROCK2): 33% | activity (CDK2): 34% | activity (MAPK14 [16]): 38%

SMILES: COc1ccc2[nH]c3c(-c4ccccc4)nc4c(c3c2c1)C(=O)NC4=O
IC50 (EGFR [12]): 8900 nM | IC50 (EGFR [13]): > 30000 nM

SMILES: c1ccc(CNc2ncnc3ncccc23)cc1
IC50 (EGFR [5]): > 10000 nM

SMILES: CNC(=O)[C@H]1C[C@H](Oc2cc3c(Nc4cccc(Cl)c4F)ncnc3cc2OC)CCN1C
IC50 (EGFR (human) [11]): 23 nM

SMILES: COc1cc2[nH]c3c(-c4ccccc4C)nc4c(c3c2cc1OC)C(=O)NC4=O
IC50 (EGFR [12]): > 30000 nM | IC50 (EGFR [13]): > 30000 nM

SMILES: Nc1cc2ncnc(NCc3ccccc3)c2cn1
IC50 (EGFR [5]): 578 nM

SMILES: N#CC(C#N)=Cc1cc(O)cc(O)c1
Ki (EGFR (human) [18]): 10000 nM

SMILES: COc1cc2c(Nc3ccc4[nH]c(C)cc4c3F)ncnc2cc1OCCCCCCC(=O)NO
IC50 (EGFR (human) [20]): ≤ 100 nM

SMILES: O=S(=O)(CCc1cccc(C(F)(F)F)c1)Cc1cc(N2CCOCC2)nc(-c2ccccn2)n1
IC50 [4]: 6800 nM

SMILES: Cc1cc2c(F)c(Nc3ncnc4cc(OCCCN5CCCC5)c(OCCCCCC(=O)NO)cc34)ccc2[nH]1
IC50 (EGFR (human) [20]): ≤ 100 nM

Continued, values first:

IC50 (EGFR [2]): 110 nM
SMILES: Nc1cc2ncnc(Nc3cccc(Br)c3)c2cn1

IC50 (EGFR [5]): 120 nM | IC50 (EGFR [6]): 84 nM
SMILES: CN(C)c1ccc2ncnc(Nc3cccc(Br)c3)c2c1

IC50 (EGFR [7]): > 50000 nM
SMILES: COc1cc(OC)cc(-c2cc3cnc(NCCCN4CCN(C)CC4)nc3nc2NC(=O)NC(C)(C)C)c1

IC50 (EGFR [2]): 38 nM
SMILES: CN(C)CCCCNc1cc2ncnc(Nc3cccc(Br)c3)c2cn1

IC50 (PIK3CB (Human)): 40000 nM
SMILES: CN(C)c1cc(-c2ccc3ncccc3c2)cnc1Cl

IC50 (EGFR [7]): > 50000 nM
SMILES: CCNC(=O)Nc1nc2nc(NCCCCN(CC)CC)ncc2cc1-c1cc(OC)cc(OC)c1

IC50 (EGFR (human) [17]): 198000 nM
SMILES: FC(F)(F)c1cccc(Nc2ncnc3[nH]c(Cc4ccc(Cl)cc4Cl)cc23)c1

IC50 (EGFR (human) [17]): 16200 nM
SMILES: Nc1nc(Nc2ccc(Cl)cc2Br)c2cc(Cc3ccc(Cl)cc3Cl)[nH]c2n1

IC50 (EGFR [3]): 180 nM
SMILES: COc1ccc(Nc2ncc3c(n2)N(c2ccccc2)C(=O)N(c2ccc(OC)cc2)C3)cc1

inhibition (EGFR (human) [19]): < 50%
SMILES: Cc1nc2c(NC(C)(C)C)nc(Nc3ccc4ncsc4c3)nc2[nH]1

inhibition (EGFR (human) [19]): 65 to 80%
SMILES: CC(C)(C)Nc1nc(Nc2ccc3ncsc3c2)nc2[nH]cnc12

IC50 (EGFR [10]): 21 nM
SMILES: CN(C)CC(=O)N1CCC(Oc2ccc3ncnc(Nc4ccc(OCc5cnccn5)c(Cl)c4)c3c2)CC1
